Read-outs that look alike come from different tables or passages of the source.
Legend:
[1] = test system: REL-A (p65) nuclear translocation, HeLa cells; assay: REL-A (p65) nuclear translocation assay in HeLa cells (classical NF-kB signaling, TNF-α stimulated); format: cell-based; conditions: Homo sapiens, 0.5 h
Method: (§1) Several assays were developed to profile the cellular activities of NIK inhibitors.
(§2) (2) A second set of cell assay are used to define the selectivity of NIK inhibitors toward inhibition of classical vs. non-classical NF-kB signaling and rely on quantification of the nuclear translocation of p52 (NF-kB2) and REL-A (p65) using high content cellular imaging. For the p52 (non-classical NF-kB signaling) nuclear translocation assay, HeLa cells are treated with different concentrations of compounds (0.2% DMSO final) in medium containing 10% fetal bovine serum and then stimulated with 100 ng/mL of an anti-lymphotoxin beta receptor antibody (R&D Systems) for 5 hours. In the REL-A nuclear translocation assay, HeLa cells are incubated with compounds (0.2% DMSO final) for 4.5 hours in medium containing 10% fetal bovine serum before stimulating them with 10 ng/mL tumor necrosis factor (TNF)-α (R&D Systems) for 30 minutes. Cells are fixed with 4% paraformaldehyde, permeabilized by adding 0.1% Triton X-100 in phosphate buffered saline, and then are incubated with either 2 ug/mL anti-p52 antibody (Millipore) or 400 ng/mL anti-REL-A (p65) antibody (Santa Cruz Biotechnology). Finally, the cells are incubated with an Alexa488-labeled secondary antibody (Invitrogen) and DRAQ5 DNA stain (Biostatus). Imaging is carried out using an Opera reader (Perkin Elmer) and data are analyzed with the aid of Acapella software (Perkin Elmer). The p52 or REL-Atranslocation into the nucleus is quantified by the ratio of the nuclear to cytoplasmic signal intensity. […] The compounds in listed in Table 1 have the corresponding inhibitory value (IC50 in micromolar) for NIK p52 Translocation Assay as set forth in Table 2.
(§3) The compounds in listed in Table 1 have the corresponding inhibitory values (IC50 in micromolar) for the Translocation Assays as set forth in Table 2.

[2] = biological target: nuclear factor-kappa B (NF-kB)-inducing kinase (NIK) (Homo sapiens (Human), UniProt Q99558); assay: NIK enzyme inhibition assay (Transcreener ADP, NIK ADP-FP); format: biochemical
[3] = test system: p52 (NF-kB2) nuclear translocation, HeLa cells; assay: p52 (NF-kB2) nuclear translocation assay in HeLa cells (non-classical NF-kB signaling, anti-lymphotoxin beta receptor antibody stimulated); format: cell-based; conditions: Homo sapiens, 100 ng/mL anti-lymphotoxin beta receptor antibody for 5 hours, read-out: p52 HeLa Transloc Assay (IC50)
Method: as §1, §2, §3

[4] = purified NIK 0.5 nM, 10 μM ATP, fluorescence polarization, read-out: NIK ADP-FP (Ki μM)
[5] = HeLa cells, 10 ng/mL TNF-α for 30 minutes, read-out: REL-A HeLa Transloc Assay (IC50)

nuclear factor-kappa B (NF-kB)-inducing kinase (NIK), sequence (Q99558 whole entry): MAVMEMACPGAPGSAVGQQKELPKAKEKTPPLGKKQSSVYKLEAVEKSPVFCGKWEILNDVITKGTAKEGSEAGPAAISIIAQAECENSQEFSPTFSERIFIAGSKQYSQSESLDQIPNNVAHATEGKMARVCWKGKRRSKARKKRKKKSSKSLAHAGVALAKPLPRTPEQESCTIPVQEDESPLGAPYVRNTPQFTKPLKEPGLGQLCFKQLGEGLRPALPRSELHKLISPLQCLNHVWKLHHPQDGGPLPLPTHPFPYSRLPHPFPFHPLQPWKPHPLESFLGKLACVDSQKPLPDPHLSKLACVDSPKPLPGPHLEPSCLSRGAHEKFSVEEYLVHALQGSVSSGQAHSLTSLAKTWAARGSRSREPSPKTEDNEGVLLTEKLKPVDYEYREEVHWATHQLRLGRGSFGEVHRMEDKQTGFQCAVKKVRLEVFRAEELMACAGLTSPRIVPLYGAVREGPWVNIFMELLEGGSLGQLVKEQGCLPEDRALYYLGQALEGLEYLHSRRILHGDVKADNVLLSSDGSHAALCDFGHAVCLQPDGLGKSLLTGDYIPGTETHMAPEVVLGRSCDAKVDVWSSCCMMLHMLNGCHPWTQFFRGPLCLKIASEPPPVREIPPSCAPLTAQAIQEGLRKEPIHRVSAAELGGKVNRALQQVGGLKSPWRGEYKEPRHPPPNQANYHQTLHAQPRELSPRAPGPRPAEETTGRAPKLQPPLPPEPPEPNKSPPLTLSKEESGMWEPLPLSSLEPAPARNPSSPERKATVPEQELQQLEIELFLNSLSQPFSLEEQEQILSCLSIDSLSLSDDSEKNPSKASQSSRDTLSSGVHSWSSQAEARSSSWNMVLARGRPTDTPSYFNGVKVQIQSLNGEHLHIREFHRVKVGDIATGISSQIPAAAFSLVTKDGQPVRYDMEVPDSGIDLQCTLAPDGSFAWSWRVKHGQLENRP

Row | Ki [2, 4] [nM] | SMILES | IC50 [3] [nM] | IC50 [1, 5] [µM] | further results
1 |  | CN1CC[C@@](O)(C#Cc2cccc(-n3nc(C(N)=O)c4ccccc43)c2)C1=O [Compound 1, 1-[3-[2-[(3R)-3-hydroxy-1-methyl-2-oxo-pyrrolidin-3-yl]ethynyl]phenyl]indazole-3-carboxamide] | 57 | 20 | 
2 |  | CN1CC[C@@](O)(C#Cc2cccc(-n3nc(C(N)=O)c4cc(F)ccc43)c2)C1=O [Compound 13, 5-fluoro-1-[3-[2-[(3R)-3-hy-droxy-1-methyl-2-oxo-pyrroli-din-3-yl]ethynyl]phenyl] indazole-3-carboxamide] | 73 | 20 | 
3 |  | CN1CC[C@@](O)(C#Cc2ccnc(-n3nc(C(N)=O)c4c3CCCC4)c2)C1=O [Compound 51, 1-[4-[2-[(3R)-3-hydroxy-1-methyl-2-oxo-pyrrolidin-3-yl]ethynyl]-2-pyridyl]-4,5,6,7-tetrahydroindazole-3-carbox-amide] | 225 | 7.19 | 
4 |  | CN1CC[C@@](O)(C#Cc2ccnc(-n3nc(C(N)=O)c4ccccc43)c2)C1=O [Compound 52, 1-[4-[2-[(3R)-3-hydroxy-1-methyl-2-oxo-pyrrolidin-3-yl]ethynyl]-2-pyridyl]indazole-3-carboxamide] | 22.8 | 20 | 
5 |  | CN1CC[C@@](O)(C#Cc2cccc(-n3nc(C(N)=O)c4cccnc43)c2)C1=O [Compound 53, 1-[3-[2-[(3R)-3-hydroxy-1-methyl-2-oxo-pyrrolidin-3-yl]ethynyl]phenyl]pyrazolo [3,4-b]pyridine-3-carboxamide] | 37.9 | 20 | 
6 |  | CN1CC[C@@](O)(C#Cc2ccnc(-n3nc(C(N)=O)c4cc(F)ccc43)c2)C1=O [Compound 54, 5-fluoro-1-[4-[2-[(3R)-3-hy-droxy-1-methyl-2-oxo-pyrroli-din-3-yl]ethynyl]-2-pyri-diyl]indazole-3-carboxamide] | 39 | 2 | 
7 |  | COc1cnc2c(c1)c(C(N)=O)nn2-c1cccc(C#C[C@]2(O)CCN(C)C2=O)c1 [Compound 74, 1-[3-[2-[(3R)-3-hydroxy-1-methyl-2-oxo-pyrrolidin-3-yl]ethynyl]phenyl]-5-methoxy-pyrazolo[3,4-b]pyridine-3-carboxamide] | 13.9 | 8 | 
8 |  | CN1CC[C@@](O)(C#Cc2cccc(-c3nc(C(N)=O)n4ccccc34)c2)C1=O [Compound 77, 1-[3-[2-[(3R)-3-hydroxy-1-methyl-2-oxo-pyrrolidin-3-yl]ethynyl]phenyl]imidazo[1,5-a]pyridine-3-carboxamide] | 29.8 | 20 | 
9 |  | CN1CC[C@@](O)(C#Cc2cccc(-c3nc(C(N)=O)c4ccccn34)c2)C1=O [Compound 88, 3-[3-[2-[(3R)-3-hydroxy-1-methyl-2-oxo-pyrrolidin-3-yl]ethynyl]phenyl]imidazo[1,5-a]pyridine-1-carboxamide] | 240 | 20 | 
10 |  | COc1ccc2c(-c3cccc(C#C[C@]4(O)CCN(C)C4=O)c3)nc(C(N)=O)n2c1 [Compound 98, 1-[3-[2-[(3R)-3-hydroxy-1-methyl-2-oxo-pyrrolidin-3-yl]ethynyl]phenyl]-6-methoxy-imidazo[1,5-a]pyridine-3-carboxamide] | 17 | 6.32 | 
11 | 1.51 | CN1CC[C@@](O)(C#Cc2cccc(-n3nc(C(N)=O)c4cc(-c5ncc[nH]5)ccc43)c2)C1=O [Compound 182, 1-[3-[2-[(3R)-3-hydroxy-1-methyl-2-oxo-pyrrolidin-3-yl]ethynyl]phenyl]-5-(1H-imidazol-2-yl)indazole-3-carboxamide] |  |  | 
12 | 0.19 | COC1CN(c2cnc3c(c2)c(C(N)=O)nn3-c2cccc(C#C[C@]3(O)CCN(C)C3=O)c2)C1 [Compound 183, 1-[3-[2-[(3R)-3-hydroxy-1-methyl-2-oxo-pyrrolidin-3-yl]ethynyl]phenyl]-5-(3-methoxyazetidin-1-yl) pyrazolo[3,4-b]pyridine-3-carboxamide] |  |  | 
13 | 103 | CN(C)C(=O)c1ccc2c(c1)c(C(N)=O)nn2-c1cccc(C#C[C@]2(O)CCN(C)C2=O)c1 [Compound 184, 1-[3-[2-[(3R)-3-hydroxy-1-methyl-2-oxo-pyrrolidin-3-yl]ethynyl]phenyl]-N5, N5-dimethyl-indazole-3,5-dicarboxamide] |  |  | 
14 |  | CN1CC[C@@](O)(C#Cc2cccc(-n3nc(C(N)=O)c4cnncc43)c2)C1=O [Compound 190, 1-[3-[2-[(3R)-3-hydroxy-1-methyl-2-oxo-pyrrolidin-3-yl]ethynyl]phenyl]pyrazolo [3,4-d]pyridazine-3-carboxamide] |  |  | Ki [2]: 6.8 nM
15 | 1.11 | CN1CC[C@@](O)(C#Cc2ccc(F)c(-n3nc(C(N)=O)c4c3COC4)c2)C1=O [Compound 191, 1-[2-fluoro-5-[2-[(3R)-3-hydroxy-1-methyl-2-oxo-pyrrolidin-3-yl]ethynyl]phenyl]-4,6-dihydrofuro[3,4-c] pyrazole-3-carboxamide] |  |  | 
16 | 28.1 | CN1CC[C@@](O)(C#Cc2cccc(-c3nc(C(N)=O)c4n3CCC4)c2)C1=O [Compound 192, 3-[3-[2-[(3R)-3-hydroxy-1-methyl-2-oxo-pyrrolidin-3-yl]ethynyl]phenyl]-6,7-dihydro-5H-pyrrolo[1,2-c] imidazole-1-carboxamide] |  |  | 
17 | 0.1 | C[C@H]1Cc2c(C(N)=O)nn(-c3cccc(C#C[C@]4(O)CCN(C)C4=O)c3)c2C1 [Compound 193, (5S)-1-[3-[2-[(3R)-3-hydroxy-1-methyl-2-oxo-pyrrolidin-3-yl]ethynyl]phenyl]-5-methyl-5,6-dihydro-4H-cyclopenta[c]pyrazole-3-carboxamide] |  |  | 
18 | 0.05 | C[C@@H]1Cc2c(C(N)=O)nn(-c3cccc(C#C[C@]4(O)CCN(C)C4=O)c3)c2C1 [Compound 194, (5R)-1-[3-[2-[(3R)-3-hydroxy-1-methyl-2-oxo-pyrrolidin-3-yl]ethynyl]phenyl]-5-methyl-5,6-dihydro-4H-cyclopenta[c]pyrazole-3-carboxamide] |  |  | 
19 | 0.05 | CN1CC[C@@](O)(C#Cc2cccc(-c3nc(C(N)=O)c(N)s3)c2)C1=O [Compound 195, 5-amino-2-[3-[2-[(3R)-3-hydroxy-1-methyl-2-oxo-pyrrolidin-3-yl]ethynyl]phenyl]thiazole-4-carboxamide] |  |  | 
20 | 0.05 | CNc1nc2c(s1)c(C(N)=O)nn2-c1cccc(C#C[C@]2(O)CCN(C)C2=O)c1 [Compound 196, 1-[3-[2-[(3R)-3-hydroxy-1-methyl-2-oxo-pyrrolidin-3-yl]ethynyl]phenyl]-5-(methylamino)pyrazolo[3,4-d] thiazole-3-carboxamide] |  |  | 
21 | 0.053 | Cc1sc(-c2cc(C#C[C@]3(O)CCN(C)C3=O)ccc2F)nc1C(N)=O [Compound 197, 2-[2-fluoro-5-[2-[(3R)-3-hydroxy-1-methyl-2-oxo-pyrrolidin-3-yl]ethynyl]phenyl]-5-methyl-thiazole-4-carboxamide] |  |  | 
22 | 0.29 | CN1CC[C@@](O)(C#Cc2cccc(-n3nc(C(N)=O)c4c3NCCC4)c2)C1=O [Compound 198, 1-[3-[2-[(3R)-3-hydroxy-1-methyl-2-oxo-pyrrolidin-3-yl]ethynyl]phenyl]-4,5,6,7-tetrahydropyrazolo[3,4-b]pyridine-3-carboxamide] |  |  | 
23 | 0.26 | CN1CC[C@@](O)(C#Cc2cccc(-n3nc(C(N)=O)c4c3CC(F)(F)C4)c2)C1=O [Compound 199, 5,5-difluoro-1-[3-[2-[(3R)-3-hydroxy-1-methyl-2-oxo-pyrrolidin-3-yl]ethynyl]phenyl]-4,6-dihydrocyclopenta [c]pyrazole-3-carboxamide] |  |  | 

Row | SMILES | Ki [2, 4] [nM] | IC50 [3] [nM] | IC50 [1, 5] [µM] | further results
24 | CC(O)(C#Cc1cccc(-n2nc(C(N)=O)c3ccccc32)c1)c1nccs1 (single isomer, unassigned) [Compound 170] | 0.75 | 244 |  | IC50 ([1]; HeLa, read-out: REL-A HeLa Transloc Assay (IC50) [μM]): 17.1 µM
25 | CN1CC[C@@](O)(C#Cc2cccc(-n3nc(C(N)=O)c4c3CCC[C@H]4O)c2)C1=O [Compound 2, (4R)-4-hydroxy-1-[3-[2-[(3R)-3-hydroxy-1-methyl-2-oxo-pyrrolidin-3-yl]ethynyl]phenyl]-4,5,6,7-tetrahydroinda-zole-3-carboxamide] | 1.07 | 273 | 20 | 
26 | CN1CC[C@@](O)(C#Cc2cccc(-n3nc(C(N)=O)c4c3CCC[C@@H]4O)c2)C1=O [Compound 3, (4S)-4-hydroxy-1-[3-[2-[(3R)-3-hydroxy-1-methyl-2-oxo-pyrrolidine-3-yl]ethynyl]phenyl]-4,5,6,7-tetrahydroinda-zole-3-carboxamide] | 1.13 | 544 | 20 | 
